# Measured values taken from patent US9217743B2, “Screening method utilizing thalidomide-targeting factor” (Tokyo Institute of Technology, priority 2009, dated 2015).
# “Also recorded” adds a separate entry of the source.
# Experiments:
# [1] = system: zebrafish embryos; test: Zebrafish embryo development, pectoral fins and otic vesicles; format: in vivo, zebrafish (Danio rerio)
# Description: To elucidate possible effects of thalidomide on zebrafish development, dechorionated embryos were transferred to media containing various concentrations of thalidomide. […] More specifically, formation of the endoskeletal disc of the pectoral fin was inhibited at 75 hpf (FIG. 4A), and the size of otic vesicles at 30 hpf was reduced (FIG. 4B). Retardation of pectoral fin development was also detected at 48-hpf embryos (FIGS. 5C and D). Recent studies have reported that development of pectoral fins and otic vesicles in teleosts (including zebrafish) shares common molecular mechanisms with the limb and ear development in tetrapods (Cited Literatures 24 to 26).
# Thalidomide was dissolved in DMSO and added to a final concentration of 400 μM to E3 medium prewarmed to […]. Zebrafish embryos were dechorionated prior to thalidomide as follows: At 2 hpf, the embryos were incubated in E3 medium containing 2 mg/ml Protease type XIV (Sigma) for three minutes and then washed five times with the medium. After dechorionation, embryos were immediately transferred to E3 medium containing thalidomide, and observed for three days. The thalidomide-containing medium was exchanged every 12 hours.
# Extracellular matrices associated with chondrocytes were stained with Alcian blue (Cited Literature 40). Zebrafish embryos were fixed in 3.7% neutral buffered formaldehyde for overnight. The next day, the embryos were washed with 100% ethanol and rehydrated with PBS. Subsequently, the embryos were incubated with a solution of 0.05% trypsin in saturated sodium tetraborate for one to three hours. Pigmentation of fish was removed by 3% hydrogen peroxide/1% potassium hydroxide solution. Stained embryos were stored in 70% glycerol-containing PBS solution.
# Microinjection into one-cell stage embryos was carried out in accordance with Cited Literature 39. The present inventors used a nitrogen gas-pressure microinjector (IM 300, Narishige Co., Ltd.) for injection. Capped mRNAs were prepared in vitro using the mMESSAGE mMACHINE in vitro transcription kit (Ambion).
# Zebrafish embryos at 48 hpf were anesthetized with 1% methylcellulose and 0.003% 3-amino benzoic acid ethyl ester (Sigma) and mounted on a slide glass. Then, otic vesicles of ten embryos randomly selected from each sample were photographed. The size was measured using the NIH image J software and compared to that of control. Average sizes and standard errors were calculated, and p-values were determined by the Mann-Whitney U test.
# [2] = target: T1, zCrbn (Danio rerio, UniProt Q68EH9, D160E); test: Binding of FH-zCrbn from 293T extracts to thalidomide beads; parameters: species or system zebrafish; conditions: FH-zCrbn in 293T extract
# T1 construct: expressed in transfected cells; host or cells: 293T (stably expressing FH-zCrbn)
# T1 sequence (Q68EH9 1-431 D160E): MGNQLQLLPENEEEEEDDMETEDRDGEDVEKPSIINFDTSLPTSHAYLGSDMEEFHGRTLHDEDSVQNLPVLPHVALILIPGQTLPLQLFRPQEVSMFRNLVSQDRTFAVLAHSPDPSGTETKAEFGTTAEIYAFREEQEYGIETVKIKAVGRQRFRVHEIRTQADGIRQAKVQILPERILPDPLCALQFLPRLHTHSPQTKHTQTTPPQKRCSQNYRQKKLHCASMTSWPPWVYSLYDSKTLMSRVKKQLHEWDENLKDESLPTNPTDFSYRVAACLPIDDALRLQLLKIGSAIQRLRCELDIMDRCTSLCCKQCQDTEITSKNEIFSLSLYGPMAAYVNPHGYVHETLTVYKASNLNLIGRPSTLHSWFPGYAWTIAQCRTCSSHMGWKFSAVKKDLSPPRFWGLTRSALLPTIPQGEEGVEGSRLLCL
# Experimental: FIG. 14 relates to biochemical analysis results of zCrbn. […] Bound proteins were eluted by thalidomide, and eluate were analyzed by western blotting. zCrbn bound to thalidomide. (B) Lysate from 293T cells overexpressing FH-zCrbn was immunoprecipitated with anti-FLAG antibody, and DDB1 was detected by western blotting. […] (C) Lysate from FLAG-zCrbn (wild type) or FLAG-zCrbn YW/AA overexpressed in 293T cells was mixed with thalidomide beads. For quantification, various amounts of input and eluate fraction were analyzed by western blotting.
# [3] = target: T2, CRBN-containing E3 complex (Homo sapiens, UniProt Q96SW2); test: Autoubiquitination in live cells, 293T cells stably expressing FH-CRBN; format: cell-based; conditions: thalidomide 10, 30 and 100 μM, with MG132
# T2 construct: expressed in transfected cells; host or cells: 293T stably expressing FH-CRBN
# Experimental: (§1) The present inventors examined whether thalidomide would inhibit ubiquitination of the CRBN-containing E3 complex. 293T cells stably expressing FH-CRBN or FH-CRBN YW/AA were treated with MG132 and thalidomide (10, 30, and 100 μM) at similar concentration relative to the therapeutic doses used in human.
# (§2) The assays were performed as described (Cited Literature 38). 293T cells stably expressing FH-CRBN or its mutant were treated with 10 μM MG132 or DMSO (vehicle) for three hours. The cells lysate were prepared using RIPA buffer containing 25 μM MG132 and 10 mM N-ethylmaleimide. FH-CRBN was immunoprecipitated and analyzed as described above. Various concentrations of thalidomide were added to cells one hour prior to MG132 treatment.
# [4] = target: T3, CRBN YW/AA (Homo sapiens, UniProt Q96SW2, W386A/Y384A); test: Autoubiquitination in live cells, 293T cells stably expressing FH-CRBN YW/AA; format: cell-based; conditions: thalidomide 10, 30 and 100 μM, with MG132
# T3 construct: expressed in transfected cells; host or cells: 293T stably expressing FH-CRBN YW/AA
# Experimental: as §1, §2
# [5] = target: CRBN (Homo sapiens, UniProt Q96SW2); test: Elution of CRBN from thalidomide-immobilized beads by test compound, Western blotting
# CRBN, sequence (Q96SW2 whole entry): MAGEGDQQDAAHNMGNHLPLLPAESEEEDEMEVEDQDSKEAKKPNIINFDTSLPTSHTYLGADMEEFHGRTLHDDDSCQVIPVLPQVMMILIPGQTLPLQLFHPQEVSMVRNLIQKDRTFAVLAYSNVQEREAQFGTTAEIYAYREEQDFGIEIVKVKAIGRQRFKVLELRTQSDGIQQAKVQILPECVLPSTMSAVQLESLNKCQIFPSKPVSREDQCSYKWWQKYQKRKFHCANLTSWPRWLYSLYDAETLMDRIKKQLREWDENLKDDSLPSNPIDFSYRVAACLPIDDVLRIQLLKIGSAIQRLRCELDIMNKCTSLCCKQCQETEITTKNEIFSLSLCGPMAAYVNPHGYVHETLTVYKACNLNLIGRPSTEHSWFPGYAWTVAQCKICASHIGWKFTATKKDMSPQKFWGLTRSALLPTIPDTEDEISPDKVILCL
# Experimental: Firstly, thalidomide-immobilized FG beads are prepared. The immobilized beads are mixed and incubated with extracts of CRBN-expressing cells or recombinant proteins for one hour or longer in a rotator at 5 rpm and 4° C. Then, after the beads are washed with a buffer, for example, a buffer containing a thalidomide derivative as a test substance is passed through the beads to see whether CRBN is eluted. Examples of a detection method include Western blotting, dot blotting, CBB staining, and silver staining.
# T2 sequence (Q96SW2 whole entry): as above
# T2 sequence (Q16531 2-1140 partner limits assumed): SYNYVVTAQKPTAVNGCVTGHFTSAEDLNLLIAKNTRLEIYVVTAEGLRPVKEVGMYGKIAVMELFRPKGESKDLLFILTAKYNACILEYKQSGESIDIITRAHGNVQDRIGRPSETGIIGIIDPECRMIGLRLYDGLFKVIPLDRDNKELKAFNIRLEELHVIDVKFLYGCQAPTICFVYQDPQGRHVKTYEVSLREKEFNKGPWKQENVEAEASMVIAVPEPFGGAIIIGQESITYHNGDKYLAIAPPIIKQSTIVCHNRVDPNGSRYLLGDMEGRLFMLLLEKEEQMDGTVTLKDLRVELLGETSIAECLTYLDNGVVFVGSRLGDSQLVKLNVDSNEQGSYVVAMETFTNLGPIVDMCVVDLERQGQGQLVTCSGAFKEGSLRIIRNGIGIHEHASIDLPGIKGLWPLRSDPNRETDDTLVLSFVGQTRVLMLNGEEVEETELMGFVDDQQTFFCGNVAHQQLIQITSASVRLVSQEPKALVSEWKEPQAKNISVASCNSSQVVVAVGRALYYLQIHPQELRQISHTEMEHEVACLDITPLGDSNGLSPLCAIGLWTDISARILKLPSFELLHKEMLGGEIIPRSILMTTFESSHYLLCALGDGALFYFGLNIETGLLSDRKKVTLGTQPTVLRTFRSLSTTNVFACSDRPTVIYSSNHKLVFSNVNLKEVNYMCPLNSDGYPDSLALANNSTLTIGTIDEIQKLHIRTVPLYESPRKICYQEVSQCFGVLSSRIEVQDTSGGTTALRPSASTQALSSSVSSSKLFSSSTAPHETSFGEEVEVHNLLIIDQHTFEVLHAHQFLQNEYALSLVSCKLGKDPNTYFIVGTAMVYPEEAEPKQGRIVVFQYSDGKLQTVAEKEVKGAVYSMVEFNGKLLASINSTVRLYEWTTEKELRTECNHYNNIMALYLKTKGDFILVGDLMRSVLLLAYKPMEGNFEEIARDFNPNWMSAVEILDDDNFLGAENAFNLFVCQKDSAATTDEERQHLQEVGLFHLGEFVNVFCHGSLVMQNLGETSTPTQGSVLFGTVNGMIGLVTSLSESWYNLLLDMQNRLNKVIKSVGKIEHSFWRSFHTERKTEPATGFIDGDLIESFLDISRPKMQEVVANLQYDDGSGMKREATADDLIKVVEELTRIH
# T2 sequence (Q13619 whole entry partner): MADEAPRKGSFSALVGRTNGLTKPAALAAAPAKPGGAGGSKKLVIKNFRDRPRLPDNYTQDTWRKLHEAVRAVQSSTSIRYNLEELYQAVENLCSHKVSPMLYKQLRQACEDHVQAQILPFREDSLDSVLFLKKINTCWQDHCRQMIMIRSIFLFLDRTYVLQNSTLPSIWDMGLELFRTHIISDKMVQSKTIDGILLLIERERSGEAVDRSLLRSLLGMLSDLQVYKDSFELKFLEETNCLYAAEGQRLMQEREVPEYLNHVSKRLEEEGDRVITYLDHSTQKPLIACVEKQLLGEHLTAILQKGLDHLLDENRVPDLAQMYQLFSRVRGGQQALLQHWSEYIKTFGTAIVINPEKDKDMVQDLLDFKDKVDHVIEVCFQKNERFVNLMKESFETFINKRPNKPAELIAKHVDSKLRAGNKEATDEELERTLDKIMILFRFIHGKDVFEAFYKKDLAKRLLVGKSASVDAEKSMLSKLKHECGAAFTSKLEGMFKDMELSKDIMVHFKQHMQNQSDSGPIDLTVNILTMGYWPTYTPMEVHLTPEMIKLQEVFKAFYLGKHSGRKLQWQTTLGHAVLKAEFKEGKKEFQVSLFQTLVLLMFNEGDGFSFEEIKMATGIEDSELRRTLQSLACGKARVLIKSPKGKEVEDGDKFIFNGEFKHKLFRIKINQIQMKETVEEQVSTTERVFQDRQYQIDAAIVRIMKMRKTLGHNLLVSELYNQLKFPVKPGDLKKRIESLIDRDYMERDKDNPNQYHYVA
# T2 sequence (P62877 2-108 partner limits assumed): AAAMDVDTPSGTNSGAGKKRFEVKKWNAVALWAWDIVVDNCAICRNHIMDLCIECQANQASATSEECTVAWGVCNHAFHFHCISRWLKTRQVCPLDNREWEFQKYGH
# T3 sequence (Q96SW2 whole entry Y384A/W386A): as the sequence (Q96SW2 whole entry) above, with Y384A, W386A counted along it
# T3 sequence (Q16531 2-1140 partner limits assumed): as the sequence (Q16531 2-1140 partner limits assumed) above
# T3 sequence (Q13619 whole entry partner): as the sequence (Q13619 whole entry partner) above
# T3 sequence (P62877 2-108 partner limits assumed): as the sequence (P62877 2-108 partner limits assumed) above
structure (smiles),measurement,setting,value
O=C1CCC(N2C(=O)c3ccccc3C2=O)C(=O)N1 (centres unmarked) [thalidomide],"size of otic vesicles, of the control size","[1]; 400 μM thalidomide, uninjected embryos",64.5%
same,size of otic vesicles,[1]; 30 hpf,reduced
same,formation of the endoskeletal disc of the pectoral fin,[1]; 75 hpf,inhibited
same,development of pectoral fins and otic vesicles,[1]; embryos in thalidomide-containing media from 2 hpf,disturbed
same,"size of otic vesicles, of the control size","[1]; thalidomide, embryos overexpressing wild-type zCrbn",approximately 66%
same,size of otic vesicles,"[1]; thalidomide, embryos overexpressing zCrbn YW/AA",did not affect
same,binding of zCrbn to thalidomide,[2],bound
same,autoubiquitination of wild-type CRBN,[3],potently inhibited; also recorded: suppressed
same,autoubiquitination of CRBN YW/AA,[4],not affected
same,CRBN eluted from thalidomide-immobilized beads by the compound,"[5]; 293T cell extracts, buffer containing 0.1 to 1 mM compound, one hour, Western blotting",eluted
same,CRBN in the eluate fraction,"[5]; Example 6, 293T extracts, elution with 1 mM compound",detected
